ChEMBL document CHEMBL5209576, “Membrane potential based assay for SLC5A7 using HEK-293 SLC5A7 OE cells” (2022)

Target: T1, High affinity choline transporter 1 (Homo sapiens, UniProt Q9GZV3)
T1 sequence (Q9GZV3 whole entry): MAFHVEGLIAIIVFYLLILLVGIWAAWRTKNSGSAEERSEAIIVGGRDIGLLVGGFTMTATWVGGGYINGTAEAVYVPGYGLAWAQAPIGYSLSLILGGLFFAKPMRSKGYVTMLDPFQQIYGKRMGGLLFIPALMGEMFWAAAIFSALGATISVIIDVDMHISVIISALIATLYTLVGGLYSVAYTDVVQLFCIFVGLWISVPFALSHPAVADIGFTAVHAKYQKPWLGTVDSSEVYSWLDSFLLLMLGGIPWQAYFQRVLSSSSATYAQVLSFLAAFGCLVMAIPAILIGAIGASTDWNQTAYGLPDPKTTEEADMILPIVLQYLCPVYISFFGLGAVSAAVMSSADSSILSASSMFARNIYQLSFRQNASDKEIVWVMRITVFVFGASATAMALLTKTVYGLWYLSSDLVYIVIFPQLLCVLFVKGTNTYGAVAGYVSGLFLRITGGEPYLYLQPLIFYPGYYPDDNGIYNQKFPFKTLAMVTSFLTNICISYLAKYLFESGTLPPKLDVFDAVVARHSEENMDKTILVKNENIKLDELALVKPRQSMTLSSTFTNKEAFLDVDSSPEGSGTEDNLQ
Test: Substrate uptake and inhibition of the High Affinity Choline Transporter 1 (CHT1, SLC5A7) as assessed by the fluorescent FLIPR membrane potential dye in HEK-293 JumpIN-SLC5A7 cells (PubChem AID: 1794811)
Type: functional, cell-based, HEK293

Row | Structure (SMILES) | EC50 | IC50 (hek293)
1 | C[N+](C)(C)CCO.[Cl-] [CHOLINE CHLORIDE] | 17 µM | –
2 | C[N+]1(C)CCOC(O)(c2ccc(-c3ccc(C4(O)C[N+](C)(C)CCO4)cc3)cc2)C1.[Br-].[Br-] (configuration not stated) | – | Inhibitor: Almost Complete Inhibition At A Concentration Of 10 Μm
